One assay has as its system WT cell line SK-BR-3. The experiment in a line: Phospho-AKT (Ser473) Inhibition Assay (HTRF), SK-BR-3. The settings on record: Homo sapiens; SK-BR-3, 1 hour treatment; read-out: p-AKT Inhibition assay (S473) IC50 SK-BR-3. It is filed as cell-based. In outline:
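SK-BR-3 (PI3Kα WT) cells seeded overnight in MEM with insulin, then treated 1 h with 11-point 1:3 dilutions (10 μM to 0.1 nM, 0.1% DMSO). Lysates read for phospho-AKT Ser473 by HTRF after 4 h antibody incubation at room temperature. IC50 from 4-parameter fit, % inhibition normalized to DMSO (max) and 10 μM GDC0077 (min).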

For assay [1], the target named is PI3Kα (p110/p85) kinase (wild type, "WT") (Homo sapiens, UniProt P42336). The experiment in a line: PI3Kα (p110/p85) kinase ADP-Glo Assay. It is filed as biochemical. The conditions noted are these: 25 uM ATP. In outline:
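Wild-type PI3Kα p110/p85 preincubated 30 min at RT with PI(4,5)P2:PS substrate ([…]) and compound ([…]) in HEPES pH7.5 buffer with MgCl2, DTT and BSA; reaction started with 25 µM ATP for 120 min at RT. ADP measured by ADP-Glo luminescence; IC50 from four-parameter logistic fit.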
For orientation: In ADP-Glo the light output rises with the ADP produced.

The test system of assay [2] is PI3Kα H1047R mutated cell line T-47D cells. The assay can be described thus: Cell Proliferation Assay (CellTiter-Glo), T-47D. It is filed as cell-based. The settings on record: for IC50: Homo sapiens, T47D, 72 h, T-47D, 3 days treatment; for Selectivity: SK-BR-3/T-47D (cell proliferation): cell proliferation IC50 ratio. In outline: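 T-47D cells seeded overnight at 3×10^3/well, then exposed 3 days to 9-point 1:3 dilutions, final […] to 1 nM in 0.1% DMSO. CellTiter-Glo luminescence; relative IC50 from percent inhibition versus medium-only and 0.1% DMSO controls, 4-parameter logistic fit.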

Assay [3] relates to PI3Kα H1047R mutated cell line T-47D. The experiment in a line: Phospho-AKT (Ser473) Inhibition Assay (HTRF), T-47D. It counts as cell-based. The settings on record: for IC50: Homo sapiens, T47D, T-47D, 1 hour treatment, read-out: p-AKT Inhibition assay (S473) IC50 T-47D; for Selectivity: SK-BR-3/T-47D (p-AKT): p-AKT (S473) IC50 ratio. In outline: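 Cells seeded overnight in insulin-supplemented MEM, then treated 1 h with 11-point 1:3 compound dilutions (10 μM to 0.1 nM final, 0.1% DMSO). Lysates assayed for phospho-AKT Ser473 by HTRF; IC50 from 4-parameter logistic fit, normalised to DMSO (max) and 10 μM GDC0077 (min).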
(In general: In TR-FRET formats the signal depends on donor and acceptor labels being close together.)

Chain of PI3Kα (p110/p85) kinase (wild type, "WT") (P42336 whole entry): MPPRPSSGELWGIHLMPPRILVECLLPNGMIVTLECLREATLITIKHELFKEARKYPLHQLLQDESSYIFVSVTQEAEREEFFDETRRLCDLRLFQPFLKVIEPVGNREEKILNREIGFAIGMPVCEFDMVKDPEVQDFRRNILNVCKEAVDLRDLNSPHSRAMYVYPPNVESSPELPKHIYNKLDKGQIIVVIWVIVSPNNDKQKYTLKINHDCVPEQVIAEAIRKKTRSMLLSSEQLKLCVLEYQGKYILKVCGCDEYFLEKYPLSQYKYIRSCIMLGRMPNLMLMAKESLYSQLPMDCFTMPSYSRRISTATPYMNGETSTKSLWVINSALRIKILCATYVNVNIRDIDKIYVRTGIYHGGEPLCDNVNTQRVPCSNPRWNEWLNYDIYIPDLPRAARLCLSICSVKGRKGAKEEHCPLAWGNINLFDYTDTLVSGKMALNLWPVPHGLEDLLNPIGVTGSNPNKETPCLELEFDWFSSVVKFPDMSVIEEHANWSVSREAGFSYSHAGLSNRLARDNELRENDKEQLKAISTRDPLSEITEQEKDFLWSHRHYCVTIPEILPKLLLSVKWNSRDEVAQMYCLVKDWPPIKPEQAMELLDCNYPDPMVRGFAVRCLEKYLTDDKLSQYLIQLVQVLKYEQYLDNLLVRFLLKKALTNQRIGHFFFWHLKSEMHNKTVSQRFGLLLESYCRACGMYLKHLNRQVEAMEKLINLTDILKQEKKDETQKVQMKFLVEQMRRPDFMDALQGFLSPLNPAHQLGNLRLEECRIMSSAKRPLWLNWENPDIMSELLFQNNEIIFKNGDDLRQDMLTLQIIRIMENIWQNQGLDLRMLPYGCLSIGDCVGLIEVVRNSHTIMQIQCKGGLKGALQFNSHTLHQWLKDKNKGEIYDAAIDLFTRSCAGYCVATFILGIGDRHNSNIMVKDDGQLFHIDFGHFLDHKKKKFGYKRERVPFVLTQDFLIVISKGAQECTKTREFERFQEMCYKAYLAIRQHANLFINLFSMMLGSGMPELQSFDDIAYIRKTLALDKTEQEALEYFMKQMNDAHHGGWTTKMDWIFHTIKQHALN
Chain of PI3Kα (p110/p85) kinase (wild type, "WT") (P27986 whole entry partner): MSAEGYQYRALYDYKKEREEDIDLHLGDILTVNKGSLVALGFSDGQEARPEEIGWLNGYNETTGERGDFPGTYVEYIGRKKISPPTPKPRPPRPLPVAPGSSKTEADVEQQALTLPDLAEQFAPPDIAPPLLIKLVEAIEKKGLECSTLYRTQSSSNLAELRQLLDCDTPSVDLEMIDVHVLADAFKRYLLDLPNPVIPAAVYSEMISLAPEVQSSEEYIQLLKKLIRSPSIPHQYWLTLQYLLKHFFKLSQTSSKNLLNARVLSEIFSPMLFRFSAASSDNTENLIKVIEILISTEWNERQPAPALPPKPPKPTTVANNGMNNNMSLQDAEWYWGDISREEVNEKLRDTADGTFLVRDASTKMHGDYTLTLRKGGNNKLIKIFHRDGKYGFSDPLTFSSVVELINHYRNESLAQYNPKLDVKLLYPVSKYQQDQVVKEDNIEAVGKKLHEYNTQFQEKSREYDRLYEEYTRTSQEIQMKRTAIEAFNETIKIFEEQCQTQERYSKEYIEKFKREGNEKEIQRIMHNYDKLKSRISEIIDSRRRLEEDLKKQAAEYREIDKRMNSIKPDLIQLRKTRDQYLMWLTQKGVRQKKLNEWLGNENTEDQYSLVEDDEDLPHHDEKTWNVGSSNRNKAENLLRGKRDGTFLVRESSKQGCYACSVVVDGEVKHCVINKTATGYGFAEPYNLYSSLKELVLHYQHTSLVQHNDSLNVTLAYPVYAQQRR

As for `Cc1cc([C@@H](C)Nc2ccccc2C(=O)O)c2cc(-c3ccccc3)n(C)c(=O)c2c1` [Example 30, (R)-2-((1-(2,7-dimethyl-1-oxo-3-phenyl-1,2-dihydroisoquinolin-5-yl)ethyl)amino)benzoic acid], the IC50 (commonly the concentration that inhibits the measured activity by half) in the assay on WT cell line SK-BR-3 is 2500 nM; in assay [1], 2500 nM; in assay [2], 177 nM; in assay [3] it was 22 nM. Besides, in assay [2], the “Selectivity: SK-BR-3/T-47D (cell proliferation)” value is on record as above 57. In assay [3], the “Selectivity: SK-BR-3/T-47D (p-AKT)” value is 113.7.

`Cc1cc([C@H](C)Nc2ccccc2C(=O)O)c2cc(-c3ccccc3)n(C)c(=O)c2c1` [Example 31, (S)-2-((1-(2,7-dimethyl-1-oxo-3-phenyl-1,2-dihydroisoquinolin-5-yl)ethyl)amino)benzoic acid]: the IC50 in the assay on WT cell line SK-BR-3 is above 10000 nM; in assay [1], above 100000 nM; in assay [2], above 10000 nM; in assay [3] it was above 10000 nM.

On to `Cc1cc(C(C)Nc2ccccc2C(=O)O)c2cc(-c3ccccc3C#N)n(C)c(=O)c2c1` (centres unmarked) [Example 32, 2-((1-(3-(2-cyanophenyl)-2,7-dimethyl-1-oxo-1,2-dihydroisoquinolin-5-yl)ethyl)amino)benzoic acid], for which the half-maximal inhibitory concentration (IC50) is above 10000 nM with WT cell line SK-BR-3, 61100 nM in assay [1], 2460 nM in assay [2] and 264 nM in assay [3]. The “Selectivity: SK-BR-3/T-47D (cell proliferation)” value in assay [2] is above 4.07. Besides, the “Selectivity: SK-BR-3/T-47D (p-AKT)” value in assay [3] was above 38.

Regarding `Cc1cc(C(C)Nc2cccnc2C(=O)O)c2cc(-c3ccc(F)cc3)n(C)c(=O)c2c1` (centres unmarked) [Example 33, 3-((1-(3-(4-fluorophenyl)-2,7-dimethyl-1-oxo-1,2-dihydroisoquinolin-5-yl)ethyl)amino)picolinic acid], the 50% inhibitory concentration (IC50) amounted to 9920 nM in the assay on WT cell line SK-BR-3, 55100 nM in assay [1], 1590 nM in assay [2] and 271 nM in assay [3]. Further, in assay [2], the “Selectivity: SK-BR-3/T-47D (cell proliferation)” value is recorded as above 6.28. For the same molecule, the “Selectivity: SK-BR-3/T-47D (p-AKT)” value in assay [3] was 36.6.

For the molecule `Cc1cc([C@@H](C)Nc2ccccc2C(=O)O)c2cc(-c3ccc(F)cc3)n(C)c(=O)c2c1` [Example 34, (R)-2-((1-(3-(4-fluorophenyl)-2,7-dimethyl-1-oxo-1,2-dihydroisoquinolin-5-yl)ethyl)amino)benzoic acid], the IC50 in the assay on WT cell line SK-BR-3 was above 10000 nM; in assay [1], 4180 nM; in assay [2] it was 175 nM; in assay [3], 20.2 nM. Besides, the “Selectivity: SK-BR-3/T-47D (cell proliferation)” value in assay [2] is above 57. For the same molecule, the “Selectivity: SK-BR-3/T-47D (p-AKT)” value in assay [3] is recorded as above 494.

As to `Cc1cc([C@H](C)Nc2ccccc2C(=O)O)c2cc(-c3ccc(F)cc3)n(C)c(=O)c2c1` [Example 35, (S)-2-((1-(3-(4-fluorophenyl)-2,7-dimethyl-1-oxo-1,2-dihydroisoquinolin-5-yl)ethyl)amino)benzoic acid], the IC50 is above 10000 nM in the assay on WT cell line SK-BR-3, above 100000 nM in assay [1], above 10000 nM in assay [2] and above 10000 nM in assay [3].

With `Cc1cc(C(C)Nc2ccccc2C(=O)O)c2cc(-c3ccccn3)n(C)c(=O)c2c1` (centres unmarked) [Example 36, 2-((1-(2,7-dimethyl-1-oxo-3-(pyridin-2-yl)-1,2-dihydroisoquinolin-5-yl)ethyl)amino)benzoic acid], the IC50 in the assay with WT cell line SK-BR-3 was above 10000 nM; in assay [1] it was 50800 nM; in assay [2], 1420 nM; in assay [3], 467 nM. Moreover, the “Selectivity: SK-BR-3/T-47D (cell proliferation)” value in assay [2] is on record as above 7.04. In assay [3], the “Selectivity: SK-BR-3/T-47D (p-AKT)” value is on record as above 21.

Regarding `Cc1cc(C(C)Nc2ccccc2C(=O)O)c2cc(-c3cccnc3)n(C)c(=O)c2c1` (centres unmarked) [Example 37, 2-((1-(2,7-dimethyl-1-oxo-3-(pyridin-3-yl)-1,2-dihydroisoquinolin-5-yl)ethyl)amino)benzoic acid], the IC50 was above 10000 nM in the assay with WT cell line SK-BR-3, 12500 nM in assay [1], 172 nM in assay [2] and 382 nM in assay [3]. The “Selectivity: SK-BR-3/T-47D (cell proliferation)” value in assay [2] is given as above 58.3. For the same molecule, in assay [3], the “Selectivity: SK-BR-3/T-47D (p-AKT)” value is reported as above 26.

As to `Cc1cc(C(C)Nc2ccccc2C(=O)O)c2cc(-c3cncc(F)c3)n(C)c(=O)c2c1` (centres unmarked) [Example 38, 2-((1-(3-(5-fluoropyridin-3-yl)-2,7-dimethyl-1-oxo-1,2-dihydroisoquinolin-5-yl)ethyl)amino)benzoic acid], the half-maximal inhibitory concentration (IC50) in the assay on WT cell line SK-BR-3 was above 10000 nM; in assay [1], 9810 nM; in assay [2] it was 216 nM; in assay [3], 285 nM. Moreover, the “Selectivity: SK-BR-3/T-47D (cell proliferation)” value in assay [2] is above 46. Moreover, the “Selectivity: SK-BR-3/T-47D (p-AKT)” value in assay [3] is reported as above 35.

On to `Cc1cc(C(C)Nc2ccccc2C(=O)O)c2cc(-c3ccc4nn(C)cc4n3)n(C)c(=O)c2c1` (centres unmarked) [Example 39, 2-((1-(2,7-dimethyl-3-(2-methyl-2H-pyrazolo[4,3-b]pyridin-5-yl)-1-oxo-1,2-dihydroisoquinolin-5-yl)ethyl)amino)benzoic acid], for which the concentration for half-maximal inhibition (IC50) in the assay on WT cell line SK-BR-3 was found to be 6170 nM; in assay [1] it was 10600 nM; in assay [2], 496 nM; in assay [3], 1110 nM. The “Selectivity: SK-BR-3/T-47D (cell proliferation)” value in assay [2] is above 20. Besides, the “Selectivity: SK-BR-3/T-47D (p-AKT)” value in assay [3] was 5.6.

For the molecule `Cc1cc([C@@H](C)Nc2ccccc2C(=O)O)c2cc(-c3ccc(-c4cnn(C)c4)cc3)n(C)c(=O)c2c1` [Example 40, (R)-2-((1-(2,7-dimethyl-3-(4-(1-methyl-1H-pyrazol-4-yl)phenyl)-1-oxo-1,2-dihydroisoquinolin-5-yl)ethyl)amino)benzoic acid], the IC50 in the assay on WT cell line SK-BR-3 came to 814 nM; in assay [1] it was 5120 nM; in assay [2], 52.7 nM; in assay [3] it was 24.3 nM. For the same molecule, in assay [2], the “Selectivity: SK-BR-3/T-47D (cell proliferation)” value was above 190. Further, the “Selectivity: SK-BR-3/T-47D (p-AKT)” value in assay [3] is recorded as 33.5.

Regarding `Cc1cc(C(C)Nc2ccccc2C(=O)O)c2cc(C#Cc3ccccc3)n(C)c(=O)c2c1` (centres unmarked) [Example 43, 2-((1-(2,7-dimethyl-1-oxo-3-(phenylethynyl)-1,2-dihydroisoquinolin-5-yl)ethyl)amino)benzoic acid], the IC50 in the assay with WT cell line SK-BR-3 came out at 1640 nM; in assay [1], 2360 nM; in assay [2] it was 620 nM; in assay [3] it was 408 nM. For the same molecule, the “Selectivity: SK-BR-3/T-47D (cell proliferation)” value in assay [2] was above 16. Also, the “Selectivity: SK-BR-3/T-47D (p-AKT)” value in assay [3] turned out to be 4.0.

As to `Cc1cc(C(C)Nc2ccccc2C(=O)O)c2cc(/C=C/c3ccccc3)n(C)c(=O)c2c1` (centres unmarked) [Example 44, (E)-2-((1-(2,7-dimethyl-1-oxo-3-styryl-1,2-dihydroisoquinolin-5-yl)ethyl)amino)benzoic acid], the IC50 with WT cell line SK-BR-3 amounted to 2130 nM; in assay [1] it was 1840 nM; in assay [2] it was 4770 nM; in assay [3] it was 560 nM. In assay [2], the “Selectivity: SK-BR-3/T-47D (cell proliferation)” value was above 2.1. Also, the “Selectivity: SK-BR-3/T-47D (p-AKT)” value in assay [3] is reported as 3.8.

As to `Cc1cc(C(C)Nc2ccccc2C(=O)O)c2cc(C3=Cc4ccccc4CC3)n(C)c(=O)c2c1` (centres unmarked) [Example 45, 2-((1-(3-(3,4-dihydronaphthalen-2-yl)-2,7-dimethyl-1-oxo-1,2-dihydroisoquinolin-5-yl)ethyl)amino)benzoic acid], the IC50 in the assay on WT cell line SK-BR-3 is 2820 nM; in assay [1], 7210 nM; in assay [2], 841 nM; in assay [3], 63.9 nM. The “Selectivity: SK-BR-3/T-47D (cell proliferation)” value in assay [2] is listed as above 12. Also, in assay [3], the “Selectivity: SK-BR-3/T-47D (p-AKT)” value came to 44.0.

For the origin of these results see US20260125346A1, “Isoquinolinone Derivatives and 4H-Quinolizinone Derivatives and Pharmaceutical Compositions Thereof for the Treatment of Disease” (BeOne Medicines I GmbH, priority 2023, published 2026).
